# From PubChem BioAssay (NCI)
# Values joined by “and” are separate entries in the source; they are usually repeats but may differ in a detail not shown here. Equal values may be shown once.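 Dose response: 5 concentrations. Exposure: 48 h. Format: 96-well plates. Endpoint: linear interpolation; highest concentration if not reached. GI50 is the concentration that inhibits growth by half. Definition used: TGI = concentration required for complete inhibition of growth.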
# What was measured:
# Experiment in all cases: NCI-60 cell line screen, 48 h
# [1] = tested on: MALME-3M melanoma
# [2] = tested on: U251 CNS
# [3] = tested on: NCI/ADR-RES ovarian
# [4] = tested on: ACHN renal
# [5] = tested on: SK-OV-3 ovarian
# [6] = tested on: DU-145 prostate
# [7] = tested on: SN12C renal
# [8] = tested on: NCI-H23 lung
# [9] = tested on: RXF 393 renal
# [10] = tested on: OVCAR-4 ovarian
SMILES,GI50 [1],TGI [1],GI50 [2],TGI [2],GI50 [3],TGI [3],GI50 [4] [µM],TGI [4] [µM],GI50 [5],TGI [5],GI50 [6],TGI [6],GI50 [7],TGI [7],GI50 [8],TGI [8],GI50 [9] [µM],TGI [9],GI50 [10],TGI [10]
COc1ccc2c(c1)N(CCO)C1=C(C(=O)OC1)C2c1cccc(F)c1 (stereo not drawn),0.391 µM,> 50 µM,0.65 µM,> 50 µM,0.297 µM,> 21.4 µM,0.386,> 50,1.26 µM,> 50 µM,1.24 µM,> 38.6 µM,0.776 µM,> 50 µM,1.8 µM,> 50 µM,0.555,> 50 µM,1.83 µM,> 50 µM
COc1ccc2cc1Oc1ccc(cc1)C[C@H]1c3c(cc4c(c3Oc3cc5c(cc3OC)CCN(C)[C@@H]5C2)OCO4)CCN1C,1.18 µM,3.01 µM,0.832 µM,5.52 µM,6.02 µM,15.9 µM,4.59,10.6,6.23 µM,12.5 µM,6.23 µM,17.8 µM,3.55 µM,10.6 µM,5.44 µM,13.5 µM,0.628,1.69 µM,2.52 µM,12.3 µM
Cc1ccc(/C=N\NC(=O)c2[nH]c3ccc(F)cc3c2-c2ccccc2)cc1,0.0572 µM,> 80.9 µM,0.0378 µM,> 58.9 µM,0.0238 µM,1.91 µM,0.0538,> 100,0.0307 µM,2.19 µM,0.0251 µM,0.0622 µM,0.0436 µM,> 100 µM,0.0374 µM,> 43.8 µM,0.0305,1.49 µM,0.147 µM,> 100 µM
C=CC(=O)Nc1cccc(Oc2nc(Nc3ccc(N4CCN(C)CC4)cc3)nc3ccsc23)c1,1.63 µM and 1.83 µM,3.14 µM and 3.66 µM,2.89 µM and 2.97 µM,> 10 µM and 9.01 µM,2.73 µM and 3.3 µM,> 10 µM and 20.1 µM,1.07,2.51,0.307 µM and 0.508 µM,> 10 µM and 14 µM,2.41 µM and 2.04 µM,> 10 µM and 6.24 µM,1.58 µM and 1.61 µM,4.35 µM and 4.61 µM,4.27 µM and 9.48 µM,> 10 µM and 36.4 µM,1.54,3.31 µM and 4.26 µM,2.74 µM and 3.23 µM,> 10 µM and 11.4 µM
O=S(=O)(c1ccc(Cl)cc1)C(Cl)(Cl)Cl,0.244 µM,3.89 µM,3.96 µM,21.1 µM,1.57 µM,> 24.5 µM,1.43,> 100,14 µM,67 µM,2.09 µM,10 µM,3.54 µM,30.3 µM,2.69 µM,17.7 µM,1.47,8.91 µM,2.23 µM,> 63.3 µM
O=C(O)CN1CCN(CC(=O)O)CC(=O)[O][Hg][O]C(=O)C1,16.6 µM,33 µM,12.2 µM,25.7 µM,30.5 µM,> 81.3 µM,19.6,34.2,> 92.2 µM,> 100 µM,27.8 µM,> 61.9 µM,18.5 µM,34.8 µM,21.2 µM,47.2 µM,18.1,32.5 µM,17.7 µM,34 µM
CN=c1ccc2nc3ccc(N)cc3sc-2c1,1.09 µM,3.45 µM,1.36 µM,10.2 µM,1.6 µM,8.44 µM,2.25,17.4,5.03 µM,24.7 µM,10.7 µM,23.5 µM,2.47 µM,12.5 µM,1.83 µM,12.9 µM,8.29,23.9 µM,0.689 µM,7.07 µM
NC(=O)c1csc(C2OC(CO)C(O)C2O)n1 (stereo not drawn),,> 7980 µM,45.5 µM,2540 µM,47.4 µM,3010 µM,54.5,> 10000,79.9 µM,> 5120 µM,,> 10000 µM,,> 8480 µM,52.3 µM,5250 µM,,6320 µM,,1160 µM
O=c1[nH]c(=O)n(C2CC(O)C(COP(=O)(OCc3ccc([N+](=O)[O-])o3)N(CCCCCl)CC(O)CO)O2)cc1F (stereo not drawn),0.207 µM,> 29.9 µM,,> 100 µM,0.781 µM,> 100 µM,< 0.0216,12.6,> 100 µM,> 100 µM,0.176 µM,> 34.8 µM,< 0.0496 µM,,2.79 µM,> 100 µM,0.0243,3.6 µM,> 100 µM,> 100 µM
CO/N=C(\COc1ccc2c(c1)[nH]c1ccccc12)c1ccc(F)cc1,22.8 µM,> 100 µM,25.4 µM,> 100 µM,51.8 µM,> 100 µM,35.7,> 100,28.7 µM,> 100 µM,> 100 µM,> 100 µM,> 100 µM,> 100 µM,> 100 µM,> 100 µM,27.6,> 100 µM,26.1 µM,> 100 µM
O=C1OC(=O)C(=C\c2ccc3c(c2)OCO3)/C1=C/c1ccc2c(c1)OCO2,,> 100 µM,,> 100 µM,,> 100 µM,,> 100,,> 100 µM,,> 100 µM,,> 100 µM,,> 100 µM,,> 100 µM,,> 100 µM
C[C@@H]1CN(Cc2ccc(F)cc2)[C@@H](C)CN1C(=O)c1cc2c(C(=O)C(=O)N(C)C)cn(C)c2cc1Cl,17.2 µM,37.7 µM,17.4 µM,46.1 µM,14.9 µM,52.7 µM,16.6,> 54.6,22.7 µM,> 79.6 µM,18.8 µM,53.1 µM,15.7 µM,43.5 µM,19.6 µM,57.2 µM,12.3,27.6 µM,22.1 µM,> 90.3 µM
